Our source for the Ki values is patent US10844032B2, “Substituted benzofuran, benzothiophene and indole Mcl-1 inhibitors” (Vanderbilt University, priority 2012, dated 2020).

pKi: −log10 of the molar value.

For one experiment, the target named is recombinant Mcl-1 (residues 172-327) (Homo sapiens (Human), UniProt Q07820). Description: Bak peptide fluorescence polarization anisotropy competition assay, Mcl-1. It counts as binding. To be noted: Table 2, Ki range; FITC-Bak peptide 10 nM, Mcl-1 14 nM; read-out: Ki for inhibition of Mcl-1. On the technique in general: Fluorescence polarisation rises when a labelled molecule tumbles more slowly, as on binding a larger partner.
Sequence of recombinant Mcl-1 (residues 172-327) (Q07820 172-327): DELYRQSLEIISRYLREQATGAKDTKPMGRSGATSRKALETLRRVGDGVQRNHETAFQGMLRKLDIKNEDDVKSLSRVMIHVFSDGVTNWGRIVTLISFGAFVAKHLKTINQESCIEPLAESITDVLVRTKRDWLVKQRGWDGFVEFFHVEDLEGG
Broadly, the pKi is the negative decadic logarithm of the Ki, by convention in mol/L. Take `Cc1cc(OCCCc2c(C(=O)NS(=O)(=O)c3ccccc3)[nH]c3cc(Cl)ccc23)cc(C)c1Cl` [Example 216, 6-chloro-3-(3-(4-chloro-3,5-dimethylphenoxy)propyl)-N-(phenylsulfonyl)-1H-indole-2-carboxamide]: the pKi is ≥ 7.00.

As to `Cc1cc(OCCCc2c(C(=O)NS(=O)(=O)CCNC(=O)c3ccco3)[nH]c3cc(Cl)ccc23)cc(C)c1Cl` [Example 232, 6-chloro-3-(3-(4-chloro-3,5-dimethylphenoxy)propyl)-N-((2-(furan-2-carboxamido)ethyl)sulfonyl)-1H-indole-2-carboxamide], the pKi was ≥ 7.00.

`Cc1cc(OCCCc2c(C(=O)NS(=O)(=O)c3ccccc3)[nH]c3c(-c4ccncc4C(F)(F)F)cccc23)cc(C)c1Cl` [Example 104, 3-(3-(4-chloro-3,5-dimethylphenoxy)propyl)-N-(phenylsulfonyl)-7-(3-(trifluoromethyl)pyridin-4-yl)-1H-indole-2-carboxamide]: the pKi was ≥ 7.00.

Take `Cc1cc(OCCCc2c(C(=O)NS(=O)(=O)CCNC(=O)C(C)C)[nH]c3cc(Cl)ccc23)cc(C)c1Cl` [Example 253, 6-chloro-3-(3-(4-chloro-3,5-dimethylphenoxy)propyl)-N-((2-isobutyramidoethyl)sulfonyl)-1H-indole-2-carboxamide]: the pKi is ≥ 7.00.

Turning to `COc1ccncc1-c1cccc2c(CCCOc3cc(C)c(Cl)c(C)c3)c(C(=O)NS(=O)(=O)c3ccccc3)[nH]c12` [Example 90, 3-(3-(4-chloro-3,5-dimethylphenoxy)propyl)-7-(4-methoxypyridin-3-yl)-N-(phenylsulfonyl)-1H-indole-2-carboxamide], the pKi was ≥ 7.00.

As to `Cc1cc(OCCCc2c(C(=O)NS(=O)(=O)c3ccc(C(=O)O)o3)[nH]c3cc(Cl)ccc23)cc(C)c1Cl` [Example 261], the pKi is ≥ 7.00.

Staying with this experiment, now noted: read-out: Ki for inhibition of Mcl-1.
For `CC(=O)N1CCC(CS(=O)(=O)NC(=O)c2[nH]c3ccccc3c2CCCOc2cc(C)c(Cl)c(C)c2)CC1` [Example 210, N-(((1-acetylpiperidin-4-yl)methyl)sulfonyl)-3-(3-(4-chloro-3,5-dimethylphenoxy)propyl)-1H-indole-2-carboxamide], the pKi was 6.00 to 6.30.

Take `Cc1cc(OCCCc2c(C(=O)NS(C)(=O)=O)[nH]c3cc(Cl)ccc23)cc(C)c1Cl` [Example 54, 6-chloro-3-(3-(4-chloro-3,5-dimethylphenoxy)propyl)-N-(methylsulfonyl)-1H-indole-2-carboxamide]: the negative-log Ki (pKi) was 6.52 to 7.00.

As to `Cc1cc(OCCCc2c(C(=O)NS(=O)(=O)c3ccccc3)[nH]c3c(-c4ccoc4)cccc23)cc(C)c1Cl` [Example 87, 3-(3-(4-chloro-3,5-dimethylphenoxy)propyl)-7-(furan-3-yl)-N-(phenylsulfonyl)-1H-indole-2-carboxamide], the pKi is 6.52 to 7.00.

On to `COc1ccc(OCCCc2c(C(=O)NS(C)(=O)=O)[nH]c3cc(Cl)ccc23)cc1` [Example 109, 6-chloro-3-(3-(4-methoxyphenoxy)propyl)-N-(methylsulfonyl)-1H-indole-2-carboxamide], for which the pKi was 4.30 to 5.00.

Take `Cc1cc(OCCCc2c(C(=O)NS(=O)(=O)CCNC(=O)c3cccn3Cc3ccccc3)n(Cc3cccnc3)c3cc(Cl)ccc23)cc(C)c1Cl` [Example 277, N-((2-(1-benzyl-1H-pyrrole-2-carboxamido)ethyl)sulfonyl)-6-chloro-3-(3-(4-chloro-3,5-dimethylphenoxy)propyl)-1-(pyridin-3-ylmethyl)-1H-indole-2-carboxamide]: the pKi was 6.30 to 6.52.

As for `Cc1cc(OCCCc2c(C(=O)NS(=O)(=O)C3CCN(C(=O)c4cccn4Cc4ccccc4)CC3)[nH]c3cc(Cl)ccc23)cc(C)c1Cl` [Example 215, N-((1-(1-benzyl-1H-pyrrole-2-carbonyl)piperidin-4-yl)sulfonyl)-6-chloro-3-(3-(4-chloro-3,5-dimethylphenoxy)propyl)-1H-indole-2-carboxamide], the pKi was 6.30 to 6.52.

Regarding `Cc1cc(OCCCc2c(C(=O)NS(=O)(=O)CCNC(=O)Cc3cn(C)c4ccccc34)[nH]c3cc(Cl)ccc23)cc(C)c1Cl` [Example 235, 6-chloro-3-(3-(4-chloro-3,5-dimethylphenoxy)propyl)-N-((2-(2-(1-methyl-1H-indol-3-yl)acetamido)ethyl)sulfonyl)-1H-indole-2-carboxamide], the pKi was 6.52 to 7.00.

Turning to `CC(=O)NCCS(=O)(=O)NC(=O)c1[nH]c2ccccc2c1CCCOc1cc(C)c(Cl)c(C)c1` [Example 198, N-((2-acetamidoethyl)sulfonyl)-3-(3-(4-chloro-3,5-dimethylphenoxy)propyl)-1H-indole-2-carboxamide], the pKi is 6.00 to 6.30.

With `Cc1cc(OCCCc2c(C(=O)NS(=O)(=O)CCNC(=O)c3ccoc3C)[nH]c3ccccc23)cc(C)c1Cl` [Example 151, 3-(3-(4-chloro-3,5-dimethylphenoxy)propyl)-N-((2-(2-methylfuran-3-carboxamido)ethyl)sulfonyl)-1H-indole-2-carboxamide], the pKi was 6.52 to 7.00.

As for `COc1ccc(Cn2cccc2C(=O)NCCS(=O)(=O)NC(=O)c2[nH]c3cc(Cl)ccc3c2CCCOc2cc(C)c(Cl)c(C)c2)cc1` [Example 249, 6-chloro-3-(3-(4-chloro-3,5-dimethylphenoxy)propyl)-N-((2-(1-(4-methoxybenzyl)-1H-pyrrole-2-carboxamido)ethyl)sulfonyl)-1H-indole-2-carboxamide], the pKi is 6.52 to 7.00.

As for `CS(=O)(=O)NC(=O)c1[nH]c2ccccc2c1CCCOc1ccccc1` [Example 30, N-(methylsulfonyl)-3-(3-phenoxypropyl)-1H-indole-2-carboxamide], the pKi is 4.30 to 5.00.

Regarding `Cc1cc(OCCCc2c(C(=O)NS(=O)(=O)c3ccc(OCc4ccccc4)cc3)n(C)c3cc(Cl)ccc23)cc(C)c1Cl` [Example 270, N-((4-(benzyloxy)phenyl)sulfonyl)-6-chloro-3-(3-(4-chloro-3,5-dimethylphenoxy)propyl)-1-methyl-1H-indole-2-carboxamide], the pKi was 6.30 to 6.52.

For `Cc1cc(OCCCc2c(C(=O)NS(=O)(=O)CCNC(=O)c3ccc4[nH]ccc4c3)[nH]c3ccccc23)cc(C)c1Cl` [Example 178, N-((2-(1H-indole-5-carboxamido)ethyl)sulfonyl)-3-(3-(4-chloro-3,5-dimethylphenoxy)propyl)-1H-indole-2-carboxamide], the pKi is 6.52 to 7.00.

Take `Cc1cc(OCCCc2c(C(=O)NS(=O)(=O)CCNS(=O)(=O)C3CCCCC3)[nH]c3ccccc23)cc(C)c1Cl` [Example 149, 3-(3-(4-chloro-3,5-dimethylphenoxy)propyl)-N-((2-(cyclohexanesulfonamido)ethyl)sulfonyl)-1H-indole-2-carboxamide]: the pKi is 6.52 to 7.00.

Consider `Cc1cc(OCCCc2c(C(=O)NS(=O)(=O)CCNC(=O)c3cccc(-c4ccccc4)c3)[nH]c3ccccc23)cc(C)c1Cl` [Example 165, N-((2-([1,1′-biphenyl]-3-ylcarboxamido)ethyl)sulfonyl)-3-(3-(4-chloro-3,5-dimethylphenoxy)propyl)-1H-indole-2-carboxamide], for which the pKi was 6.30 to 6.52.

For the compound `Cc1cc(OCCCc2c(C(=O)NS(=O)(=O)CCNC(=O)c3cccn3Cc3ccccc3)[nH]c3cc(Cl)ccc23)cc(C)c1Cl` [Example 241, N-((2-(1-benzyl-1H-pyrrole-2-carboxamido)ethyl)sulfonyl)-6-chloro-3-(3-(4-chloro-3,5-dimethylphenoxy)propyl)-1H-indole-2-carboxamide], the pKi was 6.52 to 7.00.

For `O=C(NS(=O)(=O)CCNC(=O)C1CCCCC1)c1[nH]c2cc(Cl)ccc2c1CCCOc1cccc2ccccc12` [Example 228, 6-chloro-N-((2-(cyclohexanecarboxamido)ethyl)sulfonyl)-3-(3-(naphthalen-1-yloxy)propyl)-1H-indole-2-carboxamide], the pKi is 6.30 to 6.52.

For `Cc1cc(OCCCc2c(C(=O)NS(=O)(=O)CCNC(=O)CC34CC5CC(CC(C5)C3)C4)[nH]c3ccccc23)cc(C)c1Cl` [Example 179, N-((2-(2-((1s,3s)-adamantan-1-yl)acetamido)ethyl)sulfonyl)-3-(3-(4-chloro-3,5-dimethylphenoxy)propyl)-1H-indole-2-carboxamide], the pKi is 6.52 to 7.00.

Turning to `Cc1cc(OCCCc2c(C(=O)NS(=O)(=O)CCNC(=O)c3ccncc3)[nH]c3ccccc23)cc(C)c1Cl` [Example 153, 3-(3-(4-chloro-3,5-dimethylphenoxy)propyl)-N-((2-(isonicotinamido)ethyl)sulfonyl)-1H-indole-2-carboxamide], the pKi is 5.00 to 6.00.

For the compound `Cc1cc(OCCCc2c(C(=O)NS(=O)(=O)CCNC(=O)c3ccc4ccccc4c3)[nH]c3ccccc23)cc(C)c1Cl` [Example 162, N-((2-(2-naphthamido)ethyl)sulfonyl)-3-(3-(4-chloro-3,5-dimethylphenoxy)propyl)-1H-indole-2-carboxamide], the pKi is 6.30 to 6.52.

Regarding `Cc1cc(OCCCc2c(C(=O)NS(=O)(=O)C3CCN(C(=O)CCc4ccccc4)CC3)[nH]c3cc(Cl)ccc23)cc(C)c1Cl` [Example 310, 6-chloro-3-(3-(4-chloro-3,5-dimethylphenoxy)propyl)-N-((1-(3-phenylpropanoyl)piperidin-4-yl)sulfonyl)-1H-indole-2-carboxamide], the pKi is 6.52 to 7.00.

Turning to `O=C(NS(=O)(=O)C(F)(F)F)c1cc2ccccc2n1CCCOc1cccc2ccccc12` [Example 15, 1-(3-(naphthalen-1-yloxy)propyl)-N-((trifluoromethyl)sulfonyl)-1H-indole-2-carboxamide], the pKi was 6.00 to 6.30.

For `Cc1cccc(S(=O)(=O)NC(=O)c2[nH]c3cc(Cl)ccc3c2CCCOc2cc(C)c(Cl)c(C)c2)c1` [Example 217, 6-chloro-3-(3-(4-chloro-3,5-dimethylphenoxy)propyl)-N-(m-tolylsulfonyl)-1H-indole-2-carboxamide], the pKi is 6.52 to 7.00.

Regarding `CS(=O)(=O)NC(=O)c1[nH]c2cc(Cl)ccc2c1CCCOc1ccc(Cl)c(Cl)c1` [Example 105, 6-chloro-3-(3-(3,4-dichlorophenoxy)propyl)-N-(methylsulfonyl)-1H-indole-2-carboxamide], the pKi was 5.00 to 6.00.

For the compound `CS(=O)(=O)NC(=O)c1[nH]c2cccc(Cl)c2c1CCCOc1cccc2ccccc12` [Example 49, 4-chloro-N-(methylsulfonyl)-3-(3-(naphthalen-1-yloxy)propyl)-1H-indole-2-carboxamide], the pKi was 6.52 to 7.00.
